Experiments:
RAW264.7 cells = assay: Cell viability assay (CCK-8); assay type: cell-based, Mouse; conditions: for cytotoxic activity on RAW264.7 macrophage cells: CCK-8, 24 h, among selected hybrid peptides and their parental peptides; for cell viability: RAW264.7 cells, lower doses of peptide, 24 h, CCK-8, OD450, 8 biological replicates
Procedure: The viability of peptide-treated RAW264.7 cells was determined using the Cell Counting Kit-8 (CCK-8) Assay Kit (Dojindo) ([42]). RAW264.7 cells were pre-seeded on a 96-well plate at a density of 3 × 10^4 cells/mL in 100 μL DMEM medium overnight. The cells were either treated with various concentrations of peptides or without peptides at 37°C and 5% CO2 for 24 h. Each well was incubated with 10 μL CCK-8 solution for 4 h in the darkness. Then, the absorbance at 450 nm was measured using a microplate reader. Cell viability was calculated as:
Cell viability (%)=(OD450 (sample)/OD450(control))×100%
where OD450(sample) is the absorbance at 450 nm of the cells with peptides treated and OD450(control) is the absorbance at 450 nm of the cells without peptides treated.

[1] = tested on: LPS-stimulated RAW264.7 cells; assay: ELISA of cytokine release from LPS-stimulated RAW264.7 cells; assay type: cell-based, Mouse; conditions: RAW264.7, 10 μg/mL peptide 1 h before 100 ng/mL LPS, 12 h, ELISA of supernatant; compared to the other tested peptides; n = 3
Procedure: (§1) RAW264.7 cells were treated with or without 10 μg/mL peptides for 1h before the addition of 100 ng/mL LPS and further incubation for 12 h at 37°C. Levels of tumor necrosis factor-alpha (TNF-α), interleukin-6 (IL-6), and IL-1β were detected in culture supernatant and jejunum, respectively. In addition, the level of interferon-gamma (IFN-γ) was detected in the jejunum. ELISA was performed using a commercial ELISA kit (eBioscience, San Diego, USA).

[2] = tested on: LPS-induced intestinal inflammation; assay: LPS-induced intestinal inflammation murine model; assay type: in vivo, C57/BL6 male mice
Procedure: Seventy-two C57/BL6 male mice (6–8 weeks of age) were purchased from Charles River (Beijing, China). Mice were maintained in a specific pathogen free (SPF) environment at 22 ± 1°C with relative 55 ± 10% humidity, and the assays were performed in conformity with the laws and regulations for live animal treatment at China Agricultural University.
The mice were randomly distributed into six groups (n = 12 each): control, LPS (E. coli, O111:B4, Sigma-Aldrich, USA) treatment, LL-37 pretreatment followed by LPS treatment (LL-37 + LPS), Tα1 pretreatment followed by LPS treatment (Tα1 + LPS), LTA pretreatment followed by LPS treatment (LTA + LPS). Different peptides (10 mg/kg mouse weight) were injected intraperitoneally once daily for 7 days, whereas an equal volume of sterile saline was injected intraperitoneally to the control and LPS-treated groups. On day 7, mice in LPS, LL-37 + LPS, Tα1 + LPS, and LTA + LPS groups were intraperitoneally injected with LPS (10 mg/kg mouse weight) 1h after saline or the peptides treatment, and the control group was intraperitoneally injected with an equal volume of saline. The mice were then euthanized by cervical dislocation 6 h after intraperitoneal injection of LPS or saline, and samples of the intestines were collected for analysis. The body weights of the mice were recorded before and after the experiment.
Intestinal tissues samples from the jejunum were fixed in 4% paraformaldehyde immediately after the mice were euthanized. After embedding, the tissues were sectioned (5 μm) using an RM2235 microtome (Leica) and stained with hematoxylin-eosin (H&E). Images were acquired using a DM3000 microscope. LPS-induced intestinal injury was evaluated using Chiu's score ([43]) according to changes of the villus and glands of the jejunal mucosa. Villus height and crypt depth were measured using CaseViewer software.
For immunohistochemical analysis of CD177^+, nonspecific binding sites were blocked with PBS containing 1% w/v BSA for 1 h. Anti-CD177^+ antibodies (Santa, USA) were added at a dilution of 1:100 and incubated overnight at 4°C. Samples were washed five times in PBS and treated with horse-radish peroxidase (HRP)-conjugated rabbit anti-goat IgG (JIR, USA) at ratio of 1:100; samples were left to incubate at 4°C for 1 h. After washing with PBS, 3,3′-diaminobenzidine (DAB; DAKO, USA) was added, and the slides were counterstained with Harris hematoxylin. Finally, the samples were dehydrated in an alcohol gradient (70–100%), and cleared in xylene. All slides were mounted in neutral balsam.
The apoptotic cells in the jejunal sections were detected via a commercial the terminal deoxynucleotidyl transferase mediated dUTP nick end labeling (TUNEL) staining kit according to the manufacturer's instruction (Roche, Indianapolis, IN, USA). The sections were co-stained with the DAPI (Servicebio, Wuhan, China). The number of apoptotic cells was counted in four to six randomly selected fields at 200 × magnification.
as §1
The activities of myeloperoxidase (MPO) in the jejunum were detected using ELISA kits (Boster Wuhan, China) according to the manufacturer's instructions.
Whole protein of intestinal tissues was obtained with the whole protein extraction kit (KeyGEN Biotech, Nanjing, China) according to the manufacturer's instructions. The protein concentration was measured via the BCA kit (KeyGEN Biotech, Nanjing, China). […]

[3] = Neutralization of LPS, Chromogenic End-point Tachypleus Amebocyte Lysate (CE TAL) assay; assay type: biochemical, E. coli
Procedure: The neutralization of LPS by the peptides was assessed using a quantitative Chromogenic End-point Tachypleus Amebocyte Lysate (CE TAL) assay via the QCL-1000 kit (Xiamen, China). A constant concentration of LPS (1.0 EU/mL final concentration; E. coli, O111:B4, Sigma-Aldrich, USA) was incubated with various concentrations of the peptides or polymyxin B (PMB) (0–64 μg/mL final concentration; Sigma-Aldrich, USA) at 37°C for 15 min in the wells of […] sterile microliters plates. The 100 μL aliquots concentrate of limulus amebocyte lysate reagent was added and incubated at 37°C for 6 min. On the addition of chromogenic substrate, yellow color appeared. The reactions were stopped by adding 25% HCl, and then the absorbances measured at 540 nm ([45]).

[4] = ELISA, peptide 10 mg/kg i.p. pretreatment, LPS 10 mg/kg, LTA compared to Tα1- or LL-37-pretreated groups, n = 12
[5] = jejunal tissues, western blot, LTA pretreatment vs LPS, n = 3
[6] = jejunum, western blot, LTA 10 mg/kg i.p. pretreatment, LPS 10 mg/kg

## IGKEFKRIVQRIKDFLRNLVPRTERKDVT [LTP, hybrid peptide LL-37-TP5]
RAW264.7 cells
  cytotoxic activity on RAW264.7 macrophage cells: lowest cytotoxic activity
  cell viability: greater than 100%

## IGKEFKRIVQRIKDFLRNLVPRTEKEKKEVVE [LTA, hybrid peptide LL-37-Tα1]
RAW264.7 cells
  cytotoxic activity on RAW264.7 macrophage cells: lowest cytotoxic activity
  cell viability: greater than 100%
[1]
  release of IL-1β: remarkable decrease
  release of IL-6: remarkable decrease
  release of TNF-α: remarkable decrease
[2]; CE TAL test of mouse plasma, LTA 10 mg/kg i.p. pretreatment, LPS 10 mg/kg
  plasma LPS level: significantly reduced the plasma LPS level
[2]; ELISA kit, peptide 10 mg/kg i.p. pretreatment, LPS 10 mg/kg, compared to the LPS-treated group, n = 12
  MPO activity in the jejunum: markedly decreased MPO activity
[2]; [4]
  IFN-γ concentration in the jejunum: significantly lower
  IL-1β concentration in the jejunum: significantly lower
  IL-6 concentration in the jejunum: significantly lower
  TNF-α concentration in the jejunum: significantly lower
[2]; immunohistochemistry, peptide 10 mg/kg i.p. pretreatment, LPS 10 mg/kg
  infiltration of CD177+ neutrophils into jejunal tissue: reduced this effect to the basal level
[2]; jejunal sections, peptide 10 mg/kg i.p. pretreatment, LPS 10 mg/kg, compared to the LPS-treated group
  apoptosis index (TUNEL staining): significantly reduced the apoptosis index
[2]; [5]
  phosphorylation of IKK-β: decreased
  phosphorylation of IκB-α: decreased
  phosphorylation of NF-κB: decreased
[2]; jejunum H&E, mice, peptide 10 mg/kg i.p. once daily for 7 days, LPS 10 mg/kg i.p., 6 h after LPS, LPS group 3.33 ± 0.58, mean ± SD
  Chiu's score: 0.67 ± 0.58
[2]; [6]
  expression of Occludin: significantly higher than that in the LPS-group
  expression of ZO-1: significantly higher than that in the LPS-group
[2]; jejunum, mice, peptide 10 mg/kg i.p. once daily for 7 days, LPS 10 mg/kg i.p., 6 h after LPS, LPS group 2.35 ± 0.389, mean ± SD
  villus height to crypt depth (V/C) ratio: 4.19 ± 0.364
[2]; mice, peptide 10 mg/kg i.p. once daily, then LPS 10 mg/kg i.p. 1 h after last dose, n = 12
  body weight (weight loss after LPS): recovered their weight loss rapidly
[3]; LPS 1.0 EU/mL, 37°C 15 min, CE TAL, n = 3
  concentration that completely neutralizes LPS: ≥ 8 µg/mL
[3]; LPS 1.0 EU/mL, peptide 0–64 μg/mL, 37°C 15 min, n = 3
  inhibition of the activation of tachypleus amebocyte lysate (LPS neutralization): dose-dependent manner
[3]; in vitro, CE TAL, statement of the discussion
  concentration that almost completely neutralizes LPS: 8 µg/mL
